Laboratory results: US20030032674A1, “Use of unsaturated fatty acids to treat severe inflammatory diseases” (priority 2001, published 2003)

Legend:
IL-1α expression = experiment: IL-1α immunoblot in RAW 264.7 cells; type: cell-based, murine; conditions: lauric acid 1, 10, 50, 100 μM with BSA, 11 h
Experimental: Cell culture—RAW 264.7 cells (a murine macrophage-like cell line, ATCC TIB-71), 293T cells (a human embryonic kidney cell line, provided by Sam Lee, Beth Israel Hospital. Boston, Mass.), and HT-29 cells (a human colon adenocarcinoma cell line, ATCC HTB-38) were cultured in Dulbecco's modified Eagle's medium (DMEM) containing 10% (v/v) heat-inactivated fetal bovine serum (FBS, Intergen) and 100 units/ml Penicillin and […] Streptomycin (GIBCO-BRL) at 37° C. in a 5% CO2/air environment. Cells (2×10^6) were plated in 60-mm dishes and cultured for an additional 18 hours to allow the number of cells to approximately double. Cells were maintained in serum-poor (0.25% FBS) medium for another 18 hours prior to the treatment with indicated reagents.
Preparation of fatty acids-albumin complexes—All fatty acids were solubilized in ethanol, and then combined with fatty acid-free and low-endotoxin BSA at a molar ratio of 10:1 (fatty acid: albumin) in serum-poor medium (0.25% FBS). […]
After 11 h, cell lysates were analyzed by COX-2, iNOS, IL-1α, or GAPDH immunoblot using a Western blot analysis.
RAW 264.7 cells were pretested with various concentrations (5, 10, 20, and 50 μM) of docosahexaenoic acid (C22:6n-3) for 3 hours, and then stimulated with LPS (100 ng/ml) for 8 hours and analyzed by COX-2, iNOS, IL-1 a or GAPDH immunoblot.

[1] = tested on: constitutively active human TLR4 (CD4-TLR4); experiment: NFκB reporter in 293T cells transfected with constitutively active TLR4; type: cell-based
Excerpt: Plasmids and DNA Constructs—All plasmids and constructs were obtained or made as reported in either S. H. Rhee and D. Hwang, “Murine TOLL-like receptor 4 confers lipopolysaccaride responsiveness as determined by activation of NFκB and expression of the inducible cyclooxygenase,” Journal of Biological Chemistry, vol. 275, pp. 34035-34040 (2000); and J. Y. Lee et al., “Saturated fatty acids, but not unsaturated fatty acids, induce the expression of cyclooxygenase-2 mediated through TOLL-like receptor 4,” Journal of Biological Chemistry, vol. 276, pp. 16683-16689 (2001). Briefly, the luciferase reporter plasmids (pGL2) containing the promoter region of the murine COX-2 gene (−3201/+93 or −1017/+93) were provided by David Dewitt (Michigan State University, East Lansing, Mich.). To prepare the wild-type COX-2 promoter fragment, polymerase chain reaction (PCR) was performed with the primers named Kpn-COX2-For and Hind-COX2-Rev using the murine COX-2 (−1017/+93) luciferase reporter plasmid as a template. To prepare the mutant COX-2 promoter fragment containing mutated NFκB site, Kpn-COX2-Fmut and Hind-COX2-Rev were used as primers. Each PCR fragment was inserted into the KpnI and HindIII sites of pGL2 to generate the wild-type or mutant COX-2 (−410/+86) luciferase reporter constructs, respectively. Sequences for wild-type NFκB site and the primers were used as reported elsewhere. […]

CCCCCCCCCCCC(=O)O [lauric acid]
IL-1α expression induced by fatty acid (immunoblot) (IL-1α expression): induced
effect on CD4-TLR4-induced NFκB activation [1]: potentiated
